Measurements taken from patent US20140329863A1 (priority 2011, published 2014).
Where two headings read alike, the source gives them in different places.

Assays:
[1] = test system: PrP^C in IMR32 cells; assay type: cell-based, human
[2] = test system: T98G cells; experiment: cells; assay type: cell-based, human; conditions: calcein, T98G cells
[3] = test system: PrP^C in T98G cells; assay type: cell-based, human
[4] = test system: IMR32 cells; assay type: cell-based, human
[5] = test system: PrP^Sc in dividing ScN2a-cl3 cells; assay type: cell-based, mouse; parameters: Dividing ELISA pEC50 (μM) 1st Expt. / Dividing ELISA pEC50 (μM) 2nd Expt. / Dividing ELISA pEC50 (μM) 3rd Expt. / Dividing ELISA pEC50 (μM) Mean: unit not given here; conditions: ScN2a-cl3 dividing cells
[6] = test system: PrP^Sc in dividing ScN2a-c13 cells; conditions: read-out: EC50 (ELISA), reduction of PrP^Sc load; dividing ScN2a-c13 cells
[7] = test system: PrP^Sc in nondividing ScN2a-cl3 cells; assay type: cell-based, mouse; conditions: read-out: Non-Dividing ELISA EC50 (μM) Mean (n = 3); ScN2a-c13 non-dividing cells; mean n = 3
[8] = test system: N2a-cl3 cells; experiment: cells; conditions: Mus musculus, N2a-cl3, read-out: Dividing Calcein EC50 (μM) Mean (n = 3)

| Structure (SMILES) | % Inhibition: SPC (IMR32) [1] | % Inhibition: Calcein (T98G) [2] [%] | % Inhibition: SPC (T98G) [3] | % Inhibition: Calcein (IMR32) [4] [%] | further results |
| --- | --- | --- | --- | --- | --- |
| COc1ccc(NC(=O)Nc2ccc(SC(F)(F)F)cc2)cc1 [IND-0002925] | MW: 342.3 % Inhibition: SPC (IMR32): 22 Calcein: 13 SPC (T98G): 62 Calcein: −10 | −10 | MW: 342.3 % Inhibition: SPC (IMR32): 22 Calcein: 13 SPC (T98G): 62 Calcein: −10 | 13 |  |
| CC(C)(C)NCC(O)COc1ccc(C23CC4CC(CC(C4)C2)C3)cc1 (stereo not drawn) [IND-0003070] | MW: 285.4 % Inhibition: SPC (IMR32): 94 Calcein: 34 SPC (T98G): −55 Calcein: −13 | −13 | MW: 285.4 % Inhibition: SPC (IMR32): 94 Calcein: 34 SPC (T98G): −55 Calcein: −13 | 34 |  |
| COc1ccc(S(=O)(=O)Nc2cc(C)ccc2C)cc1 [IND-0007902] | MW: 291.4 % Inhibition: SPC (IMR32): 38 Calcein: 36 SPC (T98G): 51 Calcein: 19 | 19 | MW: 291.4 % Inhibition: SPC (IMR32): 38 Calcein: 36 SPC (T98G): 51 Calcein: 19 | 36 |  |
| Cc1nc2sccn2c1-c1csc(Nc2ccc(N(C)C)cc2)n1 [IND-0009688] | MW: 288.8 % Inhibition: SPC (IMR32): 66 Calcein: 38 SPC (T98G): 31 Calcein: 8 | 8 | MW: 288.8 % Inhibition: SPC (IMR32): 66 Calcein: 38 SPC (T98G): 31 Calcein: 8 | 38 |  |
| Cc1[nH]c2ccccc2c1-c1ccnc2ccccc12 [IND-0010878] | MW: 318.4 % Inhibition: SPC (IMR32): 34 Calcein: 19 SPC (T98G): 64 Calcein: 25 | 25 | MW: 318.4 % Inhibition: SPC (IMR32): 34 Calcein: 19 SPC (T98G): 64 Calcein: 25 | 19 |  |
| Cc1cc(C)c(S(=O)(=O)NCc2ccccc2)c(C)c1 [IND-0014135] | MW: 289.4 % Inhibition SPC (IMR32): 55 Calcein: 4 SPC (T98G): 39 Calcein: 9 | 9 | MW: 289.4 % Inhibition SPC (IMR32): 55 Calcein: 4 SPC (T98G): 39 Calcein: 9 | 4 |  |
| OCCNC1CCCc2c1[nH]c1ccc(Br)cc21 (stereo not drawn) [IND-0015066] | MW: 309.2 % Inhibition: SPC (IMR32): 45 Calcein: 2 SPC (T98G): −11 Calcein: −27 | −27 | MW: 309.2 % Inhibition: SPC (IMR32): 45 Calcein: 2 SPC (T98G): −11 Calcein: −27 | 2 |  |
| CC(=O)N1CCc2c([nH]c3ccccc23)C1c1ccc(Cl)cc1 (stereo not drawn) [IND-0017998] | MW: 324.8 % Inhibition: SPC (IMR32): 73 Calcein: 7 SPC (T98G): 74 Calcein: −19 | −19 | MW: 324.8 % Inhibition: SPC (IMR32): 73 Calcein: 7 SPC (T98G): 74 Calcein: −19 | 7 |  |
| CCc1ccc(C2C(C#N)=C(N)Oc3cc(N(C)C)ccc32)cc1 (stereo not drawn) [IND-0020681] | MW: 319.4 % Inhibition: SPC (IMR32): 48 Calcein: 39 SPC (T98G): 43 Calcein: 21 | 21 | MW: 319.4 % Inhibition: SPC (IMR32): 48 Calcein: 39 SPC (T98G): 43 Calcein: 21 | 39 |  |
| COc1ccccc1C(=O)N1CCN(c2cccc(Cl)c2)CC1 [IND-0021750] | MW: 330.8 % Inhibition: SPC (IMR32): 44 Calcein: 25 SPC (T98G): 52 Calcein: 21 | 21 | MW: 330.8 % Inhibition: SPC (IMR32): 44 Calcein: 25 SPC (T98G): 52 Calcein: 21 | 25 |  |
| Cc1cccc(Nc2nc(-c3ccncc3)cs2)c1 [IND-0022317] | MW: 267.4 % Inhibition: SPC (IMR32): 87 Calcein: 35 SPC (T98G): 65 Calcein: 5 | 5 | MW: 267.4 % Inhibition: SPC (IMR32): 87 Calcein: 35 SPC (T98G): 65 Calcein: 5 | 35 |  |
| Cc1cccc(N2CCN(C(=O)c3ccc4c(c3)OCO4)CC2)c1C [IND-0023025] | MW: 338.4 % Inhibition: SPC (IMR32): 34 Calcein: 15 SPC (T98G): 34 Calcein: 26 | 26 | MW: 338.4 % Inhibition: SPC (IMR32): 34 Calcein: 15 SPC (T98G): 34 Calcein: 26 | 15 |  |
| COc1ccc(C(NC(C)=O)c2ccc3cccnc3c2O)cc1 (stereo not drawn) [IND-0058521] | MW: 322.4 % Inhibition: SPC (IMR32): 56 Calcein: 17 SPC (T98G): 49 Calcein: 3 | 3 | MW: 322.4 % Inhibition: SPC (IMR32): 56 Calcein: 17 SPC (T98G): 49 Calcein: 3 | 17 |  |
| CCS(=O)(=O)c1ncc(Cl)c(C(=O)Nc2ccccc2C)n1 [IND-0081396] | MW: 339.8 % Inhibition: SPC (IMR32): 91 Calcein: 15 SPC (T98G): −5 Calcein: −8 | −8 | MW: 339.8 % Inhibition: SPC (IMR32): 91 Calcein: 15 SPC (T98G): −5 Calcein: −8 | 15 |  |
| CCS(=O)(=O)c1ncc(Cl)c(C(=O)Nc2ccc(F)cc2)n1 [IND-0081737] | MW: 343.8 % Inhibition: SPC (IMR32): 41 Calcein: 18 SPC (T98G): −10 Calcein: −4 | −4 | MW: 343.8 % Inhibition: SPC (IMR32): 41 Calcein: 18 SPC (T98G): −10 Calcein: −4 | 18 |  |
| N#Cc1c(NC(=O)CCc2cccs2)sc2c1CCCC2 [IND-0082865] | MW: 316.4 % Inhibition: SPC (IMR32): 60 Calcein: 37 SPC (T98G): 51 Calcein: 17 | 17 | MW: 316.4 % Inhibition: SPC (IMR32): 60 Calcein: 37 SPC (T98G): 51 Calcein: 17 | 37 |  |
| COc1ccc(C(=O)NCc2cc(C)nc3ccccc23)cc1 [IND-0086056] | MW: 306.4 % Inhibition: SPC (IMR32): 45 Calcein: 18 SPC (T98G): 49 Calcein: 20 | 20 | MW: 306.4 % Inhibition: SPC (IMR32): 45 Calcein: 18 SPC (T98G): 49 Calcein: 20 | 18 |  |
| CC(C)c1ccc(NC(=O)Nc2cnccn2)cc1 [IND-0088907] | MW: 256.3 % Inhibition: SPC (IMR32): 4 Calcein: 9 SPC (T98G): 46 Calcein: 27 | 27 | MW: 256.3 % Inhibition: SPC (IMR32): 4 Calcein: 9 SPC (T98G): 46 Calcein: 27 | 9 |  |
| COc1ccnc(Nc2nc(-c3cc(-c4ccccc4)no3)cs2)c1 [compound 41, (4-Methoxypyridin-2-yl)-[4-(3-phenylisoxazol-5-yl)-thiazol-2-yl]-amine] |  |  |  |  | Dividing ELISA pEC50 (μM) 1st Expt. ([5]; 1st determination): 6.43; Dividing ELISA pEC50 (μM) 2nd Expt. ([5]; 2nd determination): 6.78; Dividing ELISA pEC50 (μM) 3rd Expt. ([5]; 3rd determination): 6.66; Dividing ELISA pEC50 (μM) Mean ([5]; mean of three determinations): 6.62; EC50 ([5]; read-out: Dividing ELISA EC50 (μM) 1st Expt., 1st determination): 0.369 µM; EC50 ([5]; read-out: Dividing ELISA EC50 (μM) 2nd Expt., 2nd determination): 0.166 µM; EC50 ([5]; read-out: Dividing ELISA EC50 (μM) 3rd Expt., 3rd determination): 0.219 µM; EC50 ([5]; read-out: Dividing ELISA EC50 (μM) Mean, mean of three determinations): 0.251 µM; EC50 [6]: 250 nM; melting point: 177 to 179 °C; EC50 [7]: > 32 µM; EC50 [8]: > 32 µM |
